Measured values from patent US8114840B2, “Medicament containing activated antithrombin III” (Hamburger Stiftung zur Forderung Von Wissenschaft und Kultur, priority 2000, dated 2012).

Tests used:
TNF α = TNF α secretion of monocytes activated with S. aureus and interferon γ (ELISA); assay type: cell-based; settings: substance alone
Experimental: FIG. 9: The IL-10 secretion of monocytes activated with S. aureus and interferon γ is increased by IDAAT. Thus IDAAT promotes the secretion of an interleukin which protects against LPS-induced lethality in animal experiments. The method used was carried out analogously to FIG. 8. IL-10 was determined by means of an ELISA. FIG. 10 (sequence in the figure title: SEQ ID NO:2): The TNF α secretion of monocytes activated with S. aureus and interferon γ is inhibited by the TSP-1 peptide […] NO: 2) (10a). […] TNF α was determined by means of an ELISA. The method used was carried out analogously to FIG. 8. FIG. 11: IDAAT inhibits the Arthus reaction in the ear of Balb-C mice • a) Mouse treated twice intraperitoneally at time 0 and 0+3 hours with 50 μg IDAAT each time. Arthus reaction in the left ear • b) Mouse treated intraperitoneally twice with control buffer. Arthus reaction in the left ear • c) BSA-FITC incorporated into the ears as a measure for the Arthus reaction in mice treated with IDAAT or control buffer. Arthus reaction in the left ear. FIG. 12: • a) dot plot of the thrombocyte-bacterial association • A: thrombocytes labelled with PE-conjugated anti-GPIX antibody (Beb 1) • B: bacteria (S. aureus) labelled with Syto 13 • C: bacteria-thrombocyte associates emitting both fluorescences • b) S. aureus (Cowan 1)-thrombocyte associates

thrombocytes [1] = assay: Adhesion of thrombocytes to adhesion proteins (microtitre plate, hexosaminidase); assay type: cell-based; settings: for inhibition of IDAAT-mediated adhesion: Heparan sulfate 0-10 μg/ml, sulfatide 0-20 μg/ml; for inhibition of IDAAT-mediated adhesion of thrombocytes to collagen / inhibition of IDAAT-mediated adhesion of thrombocytes to thrombospondin (immobilized TSP-1): EDTA 5 mM; for inhibition of IDAAT-mediated adhesion of thrombocytes to thrombospondin (immobilized TSP-1): integrins 5 μg/ml, Wortmannin 20 nM, LY294002 50 μm, clone 37 with Fc receptor blocked by IV.3
Experimental: The adhesion of thrombocytes was carried out according to Santoro et al, 1994. […] Non-adhering thrombocytes were thoroughly washed out. The number of adhering platelets was determined by lysing the platelets with Triton X-100 and determining the lysosomal enzyme hexosaminidase. In order to calibrate the adhesion assay a calibration series containing a known and increasing number of platelets was added to the microtitre plate and the absorbance of the reacted substrate p-nitrophenyl-N-acetyl-β-glucosaminide was determined in relation to the number of platelets.

monocytes = assay: TSP-1 binding to monocytes, flow cytometry with anti-TSP antibody clone P10-PE; assay type: cell-based, human; settings: 10 μg/ml purified TSP-1, without IDAAT; ~1% without additions
Experimental: Whereas without the addition of purified TSP-1 and without the addition of IDAAT only ˜1% of eluted human monocytes could be detected in a flow cytometer by an antibody (clone P10) which recognizes TSP-1 on the cell surface, the number increases to ca. 5% by adding 10 μg/ml purified TSP-1.
(§1) Apoptotic PMNL were incubated for 30 minutes with Hepes-Tyrode buffer pH 7.4, washed, labelled with the anti-TSP antibody P10-PE and the fluorescence of 3000 cells was measured in a flow cytometer • b) PMNL were made apoptotic by incubation in a cell culture medium for 24 hours in an incubator according to Savill et al., 1992. Apoptotic PMNL were incubated for 30 minutes with TSP-1 (5 μg/ml) and IDAAT (10 μg/ml) in Hepes-Tyrode buffer pH 7.4, washed, labelled with the TSP antibody P10-PE and the fluorescence of 3000 cells was measured in a flow cytometer. • c) Procedure as in a and b: IDAAT was used at increasing concentrations, IDAAT mediates the binding of thrombospondin (10 μg/ml) that was either present endogenously or added exogenously. FIG. 3: IDAAT cross-links apoptotic PMNL with monocytes by means of TSP Eluted PMNL and eluted monocytes were incubated together for 30 minutes at room temperature with TSP and IDAAT at various concentrations and the cells were fixed. […] PE and FITC positive associates were measured using a flow cytometer. […]

[2] = test system: monocytes through a HMEC-1 monolayer; assay: Transmigration of monocytes through endothelium (Transwell); assay type: cell-based, human; settings: purified TSP 25 μg/ml
Experimental: Transmigration experiments were carried out as described by Kielbassa et al., 1998. The addition of IDAAT to the culture medium of the monocytes during a transmigration experiment stimulates dose-dependently the transmigration of monocytes through the endothelium by 2-3-fold (see FIG. 4).
as §1, with “exogenously.” for “exogenously. FIG. 3: IDAAT cross-links apoptotic PMNL with monocytes by means of TSP Eluted PMNL and eluted monocytes were incubated together for 30 minutes at room temperature with TSP and IDAAT at various concentrations and the cells were fixed.”
After a 4 hour transmigration period, the inserts were carefully removed, the cell culture plate was placed for 30 min on ice in order to detach the adhered monocytes and the number of transmigrated monocytes was counted.

[3] = test system: S. aureus binding to thrombocytes; assay: S. aureus-thrombocyte associate formation, flow cytometry; assay type: cell-based
Experimental: Thrombocytes were labelled with a thrombocyte-specific phycoerythrin-conjugated anti-GPIX antibody (clone Beb 1). Bacteria (various S. aureus strains) were adjusted with Tris-buffered saline solution (TBS) to a number of 250,000 microorganisms/μl and labelled with the RNA-dye Syto 13 [MoBiTec, Göttingen] at a concentration of 2 μM. Labelled bacteria and labelled thrombocytes were co-incubated for 10 minutes at a ratio of 10:1.
The cell population were analysed in a flow cytometer. Cells that were positive for both fluorochromes were classified as associates (see FIG. 12a). Thrombin stimulation and release of TSP from the α-granula of the platelets increased the percentage of platelets carrying bacteria by 2.5-fold relative to the total number of thrombocytes.

thrombocytes [4] = assay: Thrombocyte aggregation according to Born; assay type: cell-based; settings: purified thrombospondin 25 μg/ml alone
Experimental: Gel-filtered platelets (200,000/μl) in Hepes-Tyrode buffer pH 7.4 containing fibrinogen (100 μg/ml) were examined in an aggregometer according to Born.
The method used was elucidated in detail in the description of the example. FIG. 21: The addition of monocytes (100/μl) to thrombocytes (300,000/μl) increases the adhesion of thrombocytes to TSP-1, whereas the addition of erythrocytes (20,000/μl) has an inhibitory effect. The method used was elucidated in detail in the description of the example. FIG. 22: The IDAAT-induced thrombocyte adhesion was inhibited by the inhibitors of PI-3 kinase Wortmannin (20 nM) and LY294002 (50 μm). For this purpose Wortmannin and LY294002 were preincubated for 10 minutes before adding IDAAT. FIG. 23: IDAAT mediates thrombospondin-mediated thrombocyte aggregation Thrombocyte aggregation was carded out according to Born 1962. TSP-1 (25 μg/ml) was pipetted into an aggregation-cuvette containing gel-filtered platelets (200,000/μl) in Hepes-Tyrode buffer pH 7.4 containing 100 μg/ml fibrinogen. […] Addition of IDAAT led to a weak aggregation reaction Simultaneous addition of IDAAT and soluble TSP-1 led to a pronounced aggregation. FIG. 24: IDAAT mediates the microparticle formation of thrombocytes

Molecule: RFYVVMWK (listed as Homo sapiens) [TSP-1 peptide RFYVVMWK]
- release/secretion of TNF α (TNF α): inhibited

Molecule: Heparan sulfate
- inhibition of IDAAT-mediated adhesion (thrombocytes [1]): do not inhibit

Molecule: O=C(O)CN(CCN(CC(=O)O)CC(=O)O)CC(=O)O [EDTA]
- inhibition of IDAAT-mediated adhesion of thrombocytes to collagen (thrombocytes [1]): completely inhibits
- inhibition of IDAAT-mediated adhesion of thrombocytes to thrombospondin (immobilized TSP-1) (thrombocytes [1]): completely inhibits

Molecule: TSP-1: thrombospondin-1, trimeric modular glycoprotein purified from human thrombocytes
- TSP-1 positive monocytes (monocytes): ca. 5%
- transmigration of monocytes [2]: stimulates the transmigration
- S. aureus (Cowan-1)-thrombocyte associates ([3]; TSP-1 added in addition to IDAAT): further increase in the number of associates
- inhibition of IDAAT-mediated adhesion of thrombocytes to collagen (thrombocytes [1]): inhibits
- inhibition of IDAAT-mediated adhesion of thrombocytes to thrombospondin (immobilized TSP-1) (thrombocytes [1]): inhibits
- adhesion of thrombocytes to collagen (thrombocytes [1]; FIG. 20, dose dependence): dose-dependently inhibits
- thrombocyte aggregation (thrombocytes [4]): no aggregation

Molecule: Thrombin [reference compound]
- increase of percentage of platelets carrying bacteria ([3]; thrombin stimulation, release of TSP from α-granula): 2.5 fold

Molecule: sulfatide
- inhibition of IDAAT-mediated adhesion (thrombocytes [1]): do not inhibit
